Literature values, collected in patent US20120040927A1, “MEDICINAL ANTIFUNGAL AND STEROID CREAM INCORPORATING A BIOPOLYMER AND A PROCESS TO MAKE IT” (APEX LABORATORIES PRIVATE LIMITED, priority 2009, published 2012).
Like-named read-outs stand apart in the source and are kept apart here.

Experiments:
[1] = not given; remark: listed apart in the source
[2] = test system: Trichophyton rubrum, Trichophyton mentagrophytes, Epidermophyton floccosum, Microsporum canis and Candida species including Candida albicans
[3] = not given; remark: listed apart in the source

| Protein binding | Solubility in ether ([1]; ether) | Solubility in polyethylene glycol 400, ethanol and chloroform ([1]; polyethylene glycol 400, ethanol, chloroform) | Solubility in water [1] | Absorption ([3]; humans, oral administration) | Absorption ([3]; topical and vaginal administration) | Solubility in alcohol and in chloroform ([1]; alcohol, chloroform) | Compound | In vitro antifungal activity against isolates [2] |
| --- | --- | --- | --- | --- | --- | --- | --- | --- |
| about 90% | sparingly soluble | very soluble | practically insoluble | well absorbed | minimally absorbed |  | Clc1ccccc1C(c1ccccc1)(c1ccccc1)n1ccnc1 [Clotrimazole, 1-(o-Chloro-α, α-diphenylbenzyl)imidazole] | fungistatic and fungicidal activity |
|  |  |  | insoluble |  |  | slightly soluble | CC(=O)OCC(=O)[C@@]1(O)CC[C@H]2[C@@H]3CCC4=CC(=O)CC[C@]4(C)[C@H]3[C@@H](O)C[C@@]21C [Hydrocortisone Acetate] |  |
